Legend:
[1] = target: T1, Suppressor of tumorigenicity 14 protein (Homo sapiens, UniProt Q9Y5Y6)
T1 sequence (Q9Y5Y6 whole entry): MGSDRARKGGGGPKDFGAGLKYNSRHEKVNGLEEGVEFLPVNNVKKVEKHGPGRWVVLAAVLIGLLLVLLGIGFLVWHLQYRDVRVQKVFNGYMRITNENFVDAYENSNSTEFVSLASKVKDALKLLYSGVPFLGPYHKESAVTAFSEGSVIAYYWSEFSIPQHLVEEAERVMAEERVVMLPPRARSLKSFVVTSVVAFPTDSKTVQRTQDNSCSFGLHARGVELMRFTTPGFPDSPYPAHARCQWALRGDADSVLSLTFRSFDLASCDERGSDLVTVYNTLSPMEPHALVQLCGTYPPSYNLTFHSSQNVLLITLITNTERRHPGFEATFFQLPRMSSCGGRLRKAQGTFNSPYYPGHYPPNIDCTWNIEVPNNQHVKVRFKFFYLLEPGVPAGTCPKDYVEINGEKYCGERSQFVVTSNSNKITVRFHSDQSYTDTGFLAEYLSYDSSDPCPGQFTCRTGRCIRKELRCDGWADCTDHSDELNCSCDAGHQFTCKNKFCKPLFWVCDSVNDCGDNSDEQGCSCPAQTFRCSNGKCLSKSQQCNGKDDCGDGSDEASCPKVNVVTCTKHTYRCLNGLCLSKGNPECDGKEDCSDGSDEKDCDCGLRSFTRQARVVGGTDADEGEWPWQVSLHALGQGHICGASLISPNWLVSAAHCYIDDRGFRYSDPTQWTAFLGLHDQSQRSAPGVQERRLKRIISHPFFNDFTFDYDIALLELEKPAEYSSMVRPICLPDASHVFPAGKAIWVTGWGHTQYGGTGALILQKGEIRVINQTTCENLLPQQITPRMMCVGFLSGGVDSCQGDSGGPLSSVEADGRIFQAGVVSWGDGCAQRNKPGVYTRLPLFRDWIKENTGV

[2] = target: Urokinase-type plasminogen activator (Homo sapiens, UniProt P00749); assay: Inhibition of uPA
Coagulation factor X = Coagulation factor X (Homo sapiens, UniProt P00742); assay: Inhibition of f10a
Chain of Coagulation factor X (P00742 41-179 limits assumed): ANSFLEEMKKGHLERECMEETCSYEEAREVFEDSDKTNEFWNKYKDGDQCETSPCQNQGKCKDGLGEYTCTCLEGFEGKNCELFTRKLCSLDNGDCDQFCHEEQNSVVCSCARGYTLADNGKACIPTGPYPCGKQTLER
Chain of Coagulation factor X (P00742 235-488 limits assumed): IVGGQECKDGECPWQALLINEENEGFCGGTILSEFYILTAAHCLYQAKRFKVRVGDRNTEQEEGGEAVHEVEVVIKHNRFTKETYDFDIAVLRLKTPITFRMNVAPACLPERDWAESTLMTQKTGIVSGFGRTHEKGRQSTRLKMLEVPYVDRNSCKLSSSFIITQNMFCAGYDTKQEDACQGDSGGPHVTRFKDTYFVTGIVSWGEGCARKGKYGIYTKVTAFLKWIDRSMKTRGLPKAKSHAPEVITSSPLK

Prothrombin = Prothrombin (Homo sapiens, UniProt P00734); assay: Inhibition of thrombin
Plasminogen = Plasminogen (Homo sapiens, UniProt P00747); assay: Inhibition of plasmin
Chain of Plasminogen (P00747 97-580 limits assumed): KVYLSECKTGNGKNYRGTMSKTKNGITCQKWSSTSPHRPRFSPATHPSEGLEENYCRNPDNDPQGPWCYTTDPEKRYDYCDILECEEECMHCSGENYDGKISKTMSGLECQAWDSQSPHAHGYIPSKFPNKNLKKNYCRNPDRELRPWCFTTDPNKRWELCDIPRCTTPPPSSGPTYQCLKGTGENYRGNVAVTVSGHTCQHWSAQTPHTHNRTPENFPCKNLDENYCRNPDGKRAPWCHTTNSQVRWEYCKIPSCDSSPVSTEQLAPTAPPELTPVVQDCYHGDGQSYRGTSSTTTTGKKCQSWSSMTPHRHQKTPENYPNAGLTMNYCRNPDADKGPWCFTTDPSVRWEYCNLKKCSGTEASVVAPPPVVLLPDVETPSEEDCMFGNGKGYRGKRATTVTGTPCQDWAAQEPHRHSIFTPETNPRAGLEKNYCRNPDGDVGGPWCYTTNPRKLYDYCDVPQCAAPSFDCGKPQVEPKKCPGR
Chain of Plasminogen (P00747 581-810 limits assumed): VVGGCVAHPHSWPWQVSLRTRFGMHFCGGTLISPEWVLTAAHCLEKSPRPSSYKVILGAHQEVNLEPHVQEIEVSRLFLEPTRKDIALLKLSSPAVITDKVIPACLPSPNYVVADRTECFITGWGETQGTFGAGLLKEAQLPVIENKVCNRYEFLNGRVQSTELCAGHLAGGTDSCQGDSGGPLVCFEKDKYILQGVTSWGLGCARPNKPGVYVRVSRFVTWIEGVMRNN

Structure (SMILES) | Ki [1] | Ki [2] | Ki (Coagulation factor X) | Ki (Prothrombin) | Ki (Plasminogen)
CC(C)c1cc(C(C)C)c(S(=O)(=O)NC(Cc2cccc(C(=N)N)c2)C(=O)N2CCN(C(=O)CCN=C(N)N)CC2)c(C(C)C)c1 (configuration not stated) | 0.082 µM | – | – | – | –
CC(C)c1cc(C(C)C)c(S(=O)(=O)NC(Cc2cccc(C(=N)N)c2)C(=O)N2CCN(C(=O)CN=C(N)N)CC2)c(C(C)C)c1 (racemic) | 0.33 µM | 1.5 µM | 9 µM | 1.2 µM | 0.82 µM
CC(C)c1cc(C(C)C)c(S(=O)(=O)N[C@@H](Cc2cccc(C(=N)N)c2)C(=O)N2CCC(C(=O)NCCN=C(N)N)CC2)c(C(C)C)c1 | 0.14 µM | 0.62 µM | 5 µM | 20 µM | 1.8 µM
N=C(N)c1cccc(C[C@H](NS(=O)(=O)c2ccc(C3CCCCC3)cc2)C(=O)N2CCNCC2)c1 | – | 6.6 µM | 1.1 µM | 0.17 µM | 2.8 µM
CC(C)c1cc(C(C)C)c(S(=O)(=O)N[C@@H](Cc2cccc(C(=N)N)c2)C(=O)N2CCCN(C(=O)CCN=C(N)N)CC2)c(C(C)C)c1 | 0.065 µM | 0.81 µM | 1.2 µM | 0.62 µM | 0.44 µM
Cc1c(C)c(S(=O)(=O)N[C@@H](Cc2cccc(C(=N)N)c2)C(=O)N2CCN(C(=O)CCN=C(N)N)CC2)c(C)c2c1OC(C)(C)C2 | 0.73 µM | 25 µM | > 1000 µM | 3 µM | 10.2 µM
N=C(N)NCCC(=O)N1CCN(C(=O)[C@H](Cc2cccc(C(=N)N)c2)NS(=O)(=O)c2ccc(C3CCCCC3)cc2)CC1 | 0.089 µM | 10.5 µM | 2.3 µM | 0.12 µM | 0.78 µM
CCOC(=O)N1CCN(C(=O)[C@H](Cc2cccc(C(=N)N)c2)NS(=O)(=O)c2c(C(C)C)cc(C(C)C)cc2C(C)C)CC1 | – | – | 1.7 µM | – | –
N=C(N)NCCC(=O)Nc1ccc(S(=O)(=O)N[C@@H](Cc2cccc(C(=N)N)c2)C(=O)N2CCC(CCNC(=N)N)CC2)cc1 | 0.0087 µM | 0.6 µM | 10 µM | 1.8 µM | 1.2 µM
N=C(N)c1cccc(C[C@H](NS(=O)(=O)c2ccc(NC(=O)CCN)cc2)C(=O)N2CCC(CCN)CC2)c1 | 0.028 µM | 0.82 µM | 15 µM | 8.8 µM | 1.2 µM
N=C(N)c1cccc(C[C@H](NS(=O)(=O)c2cccc3ccccc23)C(=O)N2CCC(CCN=C(N)N)CC2)c1 | 0.072 µM | 2.3 µM | 13 µM | 0.19 µM | 1.7 µM
N=C(N)NCCC(=O)N1CCN(C(=O)[C@H](Cc2cccc(C(=N)N)c2)NS(=O)(=O)c2ccc3cc4ccccc4cc3c2)CC1 | – | 6.1 µM | 4.6 µM | 0.46 µM | 3.2 µM
CC(C)c1cc(C(C)C)c(S(=O)(=O)N[C@@H](Cc2cccc(C(=N)N)c2)C(=O)N2CCNCC2)c(C(C)C)c1 | 0.1 µM | 0.87 µM | 4.6 µM | 1.3 µM | 0.8 µM
N=C(N)c1cccc(C[C@H](NS(=O)(=O)c2ccc3ccccc3c2)C(=O)N2CCC(CCN)CC2)c1 | – | 2.3 µM | 76 µM | 0.21 µM | 1.4 µM
N=C(N)NCCC(=O)N1CCN(C(=O)[C@H](Cc2cccc(C(=N)N)c2)NS(=O)(=O)c2ccc3c(c2)C(=O)c2ccccc2C3=O)CC1 | 0.053 µM | 26 µM | 2.8 µM | 1.8 µM | 7.2 µM
CC(C)c1cc(C(C)C)c(S(=O)(=O)N[C@@H](Cc2cccc(C(=N)N)c2)C(=O)N2CCCN(C(=O)C3CCNCC3)CC2)c(C(C)C)c1 | – | 2.5 µM | 5.8 µM | 5 µM | 0.26 µM
CC(C)c1cc(C(C)C)c(S(=O)(=O)N[C@@H](Cc2cccc(C(=N)N)c2)C(=O)N2CCN(C(=O)CCCN)CC2)c(C(C)C)c1 | 0.14 µM | 1.1 µM | 13 µM | 9.4 µM | 0.64 µM
N=C(N)c1cccc(C[C@H](NS(=O)(=O)c2cccc(NC(=O)CN)c2)C(=O)N2CCC(CCN)CC2)c1 | – | 11 µM | 35 µM | 7 µM | 4.5 µM
N=C(N)NCCC(=O)N1CCN(C(=O)[C@H](Cc2cccc(C(=N)N)c2)NS(=O)(=O)c2ccc(-c3ccccc3)cc2)CC1 | 0.25 µM | 4 µM | 10 µM | 0.58 µM | 3.1 µM
N=C(N)c1cccc(C[C@H](NS(=O)(=O)CCc2cccc3ccccc23)C(=O)N2CCN(C(=O)CCN=C(N)N)CC2)c1 | 0.69 µM | 56 µM | 80 µM | 1.5 µM | 4.2 µM

Structure (SMILES) | Ki [1] | Ki [2] | Ki (Coagulation factor X) | Ki (Prothrombin) | Ki (Plasminogen)
CC(C)c1cc(C(C)C)c(S(=O)(=O)N[C@@H](Cc2cccc(C(=N)N)c2)C(=O)N2CCN(C(=O)CCN)CC2)c(C(C)C)c1 | – | – | 15 µM | 3.3 µM | 0.44 µM
N=C(N)NCCC(=O)N1CCN(C(=O)[C@H](Cc2cccc(C(=N)N)c2)NS(=O)(=O)c2ccc3ccccc3c2)CC1 | 0.21 µM | 6.9 µM | 56 µM | 1.4 µM | 2.8 µM
CC(C)c1cc(C(C)C)c(S(=O)(=O)N[C@@H](Cc2cccc(C(=N)N)c2)C(=O)N2CCC(CCN=C(N)N)CC2)c(C(C)C)c1 | 0.089 µM | 0.32 µM | 3.2 µM | 0.3 µM | 1 µM
N=C(N)NCCNC(=O)C1CCN(C(=O)[C@H](Cc2cccc(C(=N)N)c2)NS(=O)(=O)c2ccc3c(c2)C(=O)c2ccccc2C3=O)CC1 | 0.013 µM | 3.6 µM | 4.9 µM | 0.42 µM | 4.1 µM
N=C(N)c1cccc(C[C@H](NS(=O)(=O)c2ccc3ccccc3c2)C(=O)N2CCC(C3CCN(C(=N)N)CC3)CC2)c1 | – | 1.3 µM | 25 µM | 1.8 µM | 1.4 µM
N=C(N)NCCCC1CCN(C(=O)[C@H](Cc2cccc(C(=N)N)c2)NS(=O)(=O)c2ccc3ccccc3c2)CC1 | 0.042 µM | 2.1 µM | 34 µM | 0.17 µM | 1.2 µM
N=C(N)c1cccc(C[C@H](NS(=O)(=O)c2cccc(NC(=O)CCN)c2)C(=O)N2CCC(CCCN)CC2)c1 | 0.005 µM | 1.5 µM | 15 µM | 13 µM | 2.7 µM
N=C(N)NCCC(=O)N1CCN(C(=O)[C@H](Cc2cccc(C(=N)N)c2)NS(=O)(=O)Cc2ccc3ccccc3c2)CC1 | 0.4 µM | 43 µM | 130 µM | 2.6 µM | 12 µM
CC(C)c1cc(C(C)C)c(S(=O)(=O)N[C@@H](Cc2cccc(C(=N)N)c2)C(=O)N2CCN(C(=O)C3CCN(C(=N)N)CC3)CC2)c(C(C)C)c1 | – | 1.1 µM | 10 µM | 5 µM | 0.6 µM
N=C(N)c1cccc(C[C@H](NS(=O)(=O)c2ccc3ccccc3c2)C(=O)N2CCC(CCCN)CC2)c1 | 0.16 µM | 2.1 µM | 66 µM | 0.6 µM | 0.73 µM
N=C(N)NCCC(=O)N1CCN(C(=O)[C@H](Cc2cccc(C(=N)N)c2)NS(=O)(=O)c2cccc3ccccc23)CC1 | 0.34 µM | 19 µM | 5.1 µM | 2.5 µM | 3.7 µM
CC(C)c1cc(C(C)C)c(S(=O)(=O)N[C@@H](Cc2cccc(C(=N)N)c2)C(=O)N2CCCN(C(=O)CCN)CC2)c(C(C)C)c1 | – | 1.2 µM | 5.3 µM | 0.49 µM | 0.36 µM
N=C(N)c1cccc(C[C@H](NS(=O)(=O)c2ccc3ccccc3c2)C(=O)N2CCC(C3CCNCC3)CC2)c1 | – | 2.2 µM | 24 µM | 12 µM | 0.21 µM
CC(C)c1cc(C(C)C)c(S(=O)(=O)N[C@@H](Cc2cccc(C(=N)N)c2)C(=O)N2CCN(C(=O)C3CCNCC3)CC2)c(C(C)C)c1 | – | 1.2 µM | 17 µM | 5.4 µM | 1.3 µM
N=C(N)c1cccc(C[C@H](NS(=O)(=O)c2cccc(NC(=O)CCCN)c2)C(=O)N2CCC(CCN)CC2)c1 | – | 8 µM | 23 µM | 21 µM | 2.5 µM
Cc1ccc(S(=O)(=O)NC(Cc2cccc(C(=N)N)c2)C(=O)N2CCCCC2)cc1 (configuration not stated) | 14 µM | – | – | – | –
CCC(=O)N1CCN(C(=O)[C@H](Cc2cccc(C(=N)N)c2)NS(=O)(=O)c2ccc3c(c2)C(=O)c2ccccc2C3=O)CC1 | – | 31 µM | 1.3 µM | 0.054 µM | 6 µM
CC(C)c1cc(C(C)C)c(S(=O)(=O)N[C@@H](Cc2cccc(C(=N)N)c2)C(=O)N2CCN(C(=N)N)CC2)c(C(C)C)c1 | – | 1.6 µM | 3.7 µM | 13 µM | 1.8 µM
N=C(N)c1cccc(C[C@H](NS(=O)(=O)c2ccc(-c3ccccc3)cc2)C(=O)N2CCN(C(=O)C3CCN(C(=N)N)CC3)CC2)c1 | – | 12 µM | 2.8 µM | 1.3 µM | 1.4 µM

Reference: ChEMBL document CHEMBL1138903, “Secondary amides of sulfonylated 3-amidinophenylalanine. New potent and selective inhibitors of matriptase” (J Med Chem, 2006)
